# Read-outs that look alike come from different tables or passages of the source.
# Tests used:
# [1] = Kinetic (aqueous) solubility in pH 7.4 DPBS, UV quantification; details: kinetic; pH 7.4 DPBS, 4 hours, room temperature (25° C.)
# [2] = Singlet oxygen quantum yield, indirect method with chemical quencher (DPBF or ADMA); assay type: physicochemical; details: quencher ADMA, aqueous media, 670 nm LED 5 mW/cm^2, reference AlPcSmix
# From the text: Photogeneration quantum yields of singlet oxygen (ΦΔ) were obtained by an indirect method, using either diphenylisobenzofuran (DBPF) or anthracene-9,10-bis-methylmalonate (ADMA) as chemical quenchers in either N,N-dimethylformamide or aqueous media, respectively. Typically, a solution of the phthalocyanine and the quencher was irradiated with a red LED lamp (670 nm) at 5 mW/cm^2. The initial DPBF or ADMA concentrations were kept the same for both the reference and the test samples. The degradation of the DPBF band at 414 nm or ADMA at 401 nm was monitored in a Varian Cary® 50 UV-Vis spectrophotometer, every five seconds in the case of DPBF (up to 30 seconds) and every minute in the case of ADMA (up to five minutes). ZnPc (ΦΔ=0.67) and AlPcSmix (ΦΔ=0.42) were used as references in N,N-dimethylformamide or aqueous media, respectively.
# The relative method shown by Eq. (1) was employed for calculations of the ΦΔ:
# [formula] • where ΦΔ and ΦΔref are the ^1O2 generation quantum yields for the sample and reference, respectively, m and mref are the DPBF or ADMA photobleaching rates in the presence of the phthalocyanine of the invention and the reference, respectively, and I and Iref are the rates of light absorption by the phthalocyanine derivative and reference, respectively. Concentrations of the test compound and reference were chosen such that their respective absorptions at the irradiation wavelength were the same.
# [3] = tested on: BxPC3 cells; experiment: Cell killing of free dye PIT, CellTox Green Cytotoxicity Assay; assay type: cell-based; details: BxPC3, 0-1 μg/mL free dye, 690 nm laser 64 J/cm2, 24 hours after light
# Experimental: The PIT killing activity of free dyes were evaluated using the molecules synthesized as Example 12 and Example 13. BxPC3 cells (#CRL-1687, ATCC, Manassas VA) were plated, 5,000 cells per well, in RPMI-1640 media supplemented with 10% FBS and 1% Penicillin/Streptomycin (complete culture media) in a deep-well 96-well plate. Following overnight incubation at 37° C., the culture media were removed and the cells were incubated in 100 μL complete media with 1, 0.333, 0.111, 0.03704, 0.01235, 0.00412, 0.00137, or 0 μg/mL Example 12, Example 13, or IRDye 700DX carboxylate (control) for one hour at 4° C. […]
# The effect of different treatment regimens on cell death was measured using the CellTox™ Green Cytotoxicity Assay (Cat No: G8742, Promega, Madison, WI). […] The CellTox™ Green fluorescence signal was measured at 24 hours after light treatment using a fluorescence plate reader. The cells were then lysed with diluted lysis solution (Cat No: G1821, Promega, Madison, WI), incubated at 37° C. for 30 minutes, and the CellTox™ Green fluorescence signal was measured again post-lysis. The percentages of dead cells were calculated by taking the ratio between background (1× CellTox™ Green in complete culture media without cells)-subtracted CellTox™ Green signal per well prior to and post lysis and multiplying the ratio by 100.
# [4] = UV-Vis absorption spectra; assay type: physicochemical
# Experimental: The UV-Vis absorption spectra of the compounds in either an organic solvent or aqueous media was recorded in a Varian Cary® 50 UV-Vis spectrophotometer. Compounds of the invention show absorption in the 600-800 nm region of the spectra.
# [5] = Thermodynamic solubility in pH 7.4 DPBS, UV quantification; assay type: physicochemical; details: Dulbecco's phosphate-buffered saline (DPBS), aqueous buffer, thermodynamic from solid, room temperature (25° C.)
# Experimental: A working 1 mM stock solution of the test compound in DMSO was prepared from a 10 mM DMSO stock solution. A spectrum scan from 220 nm to 1000 nm of this working solution was performed in a 96-well UV plate to identify the wavelength maxima. […] The selected stock solution was serially diluted in DMSO to confirm linearity and generate a seven to eight-point calibration curve. Of note, only linear points were considered in the curve.
# The resulting solution was placed on a RotoSpin™ shaker at 50 rpm for 24 hours at room temperature (25° C.). The solution was then filtered using a 0.45 μm PVDF filter to remove any insoluble fraction of the compound. A 150 μL aliquot of the filtrate was taken for quantification using UV spectroscopy (POLARstar Omega BMG Plate Reader). The optical densities of the standard solutions and the test sample were acquired at the same wavelength maxima. The test sample concentration was calculated from its optical density using the linearity/calibration curve.
# [6] = cited from earlier work
Compound,Solubility* (kinetic solubility) [1],ΦΔ (singlet oxygen quantum yield) [2],cell death (cytotoxicity) following illumination [3],solubility thermodynamic at 24 h [5],further results
"3-((6-((λ^5-azaneyl)oxy)-6-oxohexyl)(3-(((λ5-azaneyl)oxy)sulfonyl)propyl)(3-(((19-(((3-(bis(3-(((λ5-azaneyl)oxy)sulfonyl)propyl)(3-sulfonatopropyl)ammonio)propyl)dimethylsilyl)oxy)-19H-6,11-(azeno)-17,21-(azeno[3]episoindoloazeno)benzo[7,8][1,3,5,10]tetraaza[2]silacycloundecino[4,3-a:11,1-a′]diisoindol-19-yl)oxy)dimethylsilyl)propyl)ammonio)propane-1-sulfonate [Example 12]",C (C: >100 μg/mL),B (B: >0.5),dose-dependent cytotoxicity,–,–
"4-((6-((λ5-azaneyl)oxy)-6-oxohexyl)(4-(((λ5-azaneyl)oxy)sulfonyl)butyl)(3-(((19-(((3-(bis(4-(((λ5-azaneyl)oxy)sulfonyl)butyl)(4-sulfonatobutyl)ammonio)propyl)dimethylsilyl)oxy)-19H-6,11-(azeno)-17,21-(azeno[3]episoindoloazeno)benzo[7,8][1,3,5,10]tetraaza[2]silacycloundecino[4,3-a:11,1-a′]diisoindol-19-yl)oxy)dimethylsilyl)propyl)ammonio)butane-1-sulfonate [Example 13]",C (C: >100 μg/mL),B (B: >0.5),dose-dependent cytotoxicity,–,maximum UV absorbance (UVmax) [4]: 677 nm; absorption at 690 nm relative to UVmax ([4]; wavelength 690 nm): approximately 50%
C[Si](C)(CCCNC(=O)CCCCC(=O)O)O[Si-2]123(O[Si](C)(C)CCCNC(=O)C(CCC[N+](CCCS(=O)(=O)O)(CCCS(=O)(=O)O)CCCS(=O)(=O)O)CCC[N+](CCCS(=O)(=O)O)(CCCS(=O)(=O)O)CCCS(=O)(=O)O)n4c5c6ccccc6c4N=C4c6ccccc6C(=[N+]41)N=c1c4ccccc4c(n12)=NC1=[N+]3C(=N5)c2ccccc21.[Na+].[Na+].[Na+].[Na+].[Na+] [Example 20],–,–,–,> 100 µg/mL,–
"C[Si](C)(CCC[N+](CCCCS(=O)(=O)O)(CCCCS(=O)(=O)O)CCCCS(=O)(=O)O)O[Si-2]123(O[Si](C)(C)CCC[N+](CCCCS(=O)(=O)O)(CCCCS(=O)(=O)O)CCOCCOCCOCCOCCC(=O)O)n4c5c6ccccc6c4N=C4c6ccccc6C(=[N+]41)N=c1c4ccccc4c(n12)=NC1=[N+]3C(=N5)c2ccccc21.[Na+].[Na+].[Na+].[Na+] [Example 22, Sodium 2-((19-((dimethyl(3-(tris(4-sulfonatobutyl)ammonio)propyl)silyl)oxy)-19H-6,11-(azeno)-17,21-(azeno[3]episoindoloazeno)benzo[7,8][1,3,5,10]tetraaza[2]silacycloundecino[4,3-a:11,1-a′]diisoindol-19-yl)oxy)-2-methyl-6,6-bis(4-sulfonatobutyl)-9,12,15,18-tetraoxa-6-aza-2-silahenicosan-6-ium-21-oate]",–,–,–,> 100 µg/mL,–
[Zn+2].c1ccc2c(c1)-c1nc-2nc2[n-]c(nc3nc([n-]c4nc(n1)-c1ccccc1-4)-c1ccccc1-3)c1ccccc21 [ZnPc],–,–,–,–,"ΦΔ of reference ([6]; reference in N,N-dimethylformamide): 0.67"
AlPcSmix,–,–,–,–,ΦΔ of reference ([6]; reference in aqueous media): 0.42

# From patent publication US20240285765A1, “PHTHALOCYANINE DYE COMPOUNDS, CONJUGATES AND METHODS OF USE THEREOF” (Rakuten Medical, Inc., priority 2021, published 2024)
